Experimental data as given in ChEMBL document CHEMBL5506053, “Explorations of Agonist Selectivity for the α9* nAChR with Novel Substituted Carbamoyl/Amido/Heteroaryl Dialkylpiperazinium Salts and Their Therapeutic Implications in Pain and Inflammation” (J Med Chem, 2024).
Calls of active or inactive are those of the source.

What was measured:
[1] = Apparent permeability across apical to basolateral side in human Caco-2 cells at pH 6.8 at 5 ug/ml measured after 2 hrs by UPLC-MS/MS analysis; type: ADME, cell-based; conditions: caco-2, pH 6.8, 2 h, dose 5 µg/ml
THP-1 [2] = test: Induction of IL-1beta release in LPS primed monocytic human THP-1 cells at 10 uM primed with LPS for 5 hrs followed by compound addition and further incubated for 40 mins by ELISA; type: functional, cell-based
[3] = Apparent permeability across basolateral to apical side in human Caco-2 cells at pH 7.4 at 5 ug/ml measured after 2 hrs by UPLC-MS/MS analysis; type: ADME, cell-based; conditions: caco-2, pH 7.4, 2 h, dose 5 µg/ml
[4] = biological target: Neuronal acetylcholine receptor subunit alpha-9 (Homo sapiens, UniProt Q9UGM1); test: (§1) Agonist activity at human alpha9 nAChR expressed as xenopus laevis oocytes assessed as increase in receptor desensitization by measuring fold change in maximum response (Imax) measured after 120 secs by two-electrode voltage-clamp electrophysiology method relative to acetylcholine; type: cell-based; conditions: Oocyte, filed as agonist, time 120.0 sec
[5] = biological target: T1, Neuronal acetylcholine receptor; alpha3/beta4 (Homo sapiens) (UniProt P30926+P32297); test: (§2) Inhibition of acetylcholine induced response in human alpha3beta4 nAChR expressed in xenopus laevis oocytes assessed as fold change at 100 uM preincubated with 3 uM acetylcholine followed by compound administration for 12 sec and measured 181 sec post washout by two-electrode voltage-clamp electrophysiology method relative to acetylcholine alone; type: cell-based; conditions: Oocyte
[6] = Apparent permeability across basolateral to apical side in human Caco-2 cells at pH 5 at 5 ug/ml measured after 2 hrs by UPLC-MS/MS analysis; type: ADME, cell-based; conditions: caco-2, pH 5, 2 h, dose 5 µg/ml
[7] = biological target: T1, Neuronal acetylcholine receptor; alpha3/beta4 (Homo sapiens); test: Agonist activity at human alpha3beta4 nAChR expressed in xenopus laevis oocytes at 100 uM measured after 120 secs by two-electrode voltage-clamp electrophysiology method relative to control; type: cell-based; conditions: Oocyte, time 120.0 sec
Mus musculus [8] = test: Antiinflammatory activity in CFA-treated C57BL/6J mouse model assessed as reduction in paw edema at 20 mg/kg, ip measured after 6 hrs
[9] = biological target: Neuronal acetylcholine receptor; alpha9/alpha10 (Homo sapiens) (UniProt Q9UGM1+Q9GZZ6); test: Agonist activity at human alpha9alpha10 nAChR expressed as xenopus laevis oocytes assessed as increase in receptor desensitization by measuring fold change in maximum response (Imax) measured after 120 secs by two-electrode voltage-clamp electrophysiology method relative to acetylcholine; type: cell-based; conditions: Oocyte, filed as agonist, time 120.0 sec
[10] = Apparent permeability across apical to basolateral side in human Caco-2 cells at pH 7.4 at 5 ug/ml measured after 2 hrs by UPLC-MS/MS analysis; type: ADME, cell-based; conditions: caco-2, pH 7.4, 2 h, dose 5 µg/ml
Mus musculus [11] = test: Antinociceptive activity in complete freund's adjuvant induced inflammatory pain in C57BL/6J mouse model assessed as increase in mechanical pain threshold at 20 mg/kg, ip pretreated with CFA for 3 days followed by compound treatment and measured after 1 to 72 hrs; type: functional, organism-based; conditions: time 1-72 hrs
[12] = Apparent permeability across apical to basolateral side in human Caco-2 cells at pH 5 at 5 ug/ml measured after 2 hrs by UPLC-MS/MS analysis; type: ADME, cell-based; conditions: caco-2, pH 5, 2 h, dose 5 µg/ml
Oocyte [13] = test: as §2, with “mouse muscle alpha1beta1epsilondelta” for “human alpha3beta4”, “30” for “100”; type: cell-based
[14] = Apparent permeability across basolateral to apical side in human Caco-2 cells at pH 6.8 at 5 ug/ml measured after 2 hrs by UPLC-MS/MS analysis; type: ADME, cell-based; conditions: caco-2, pH 6.8, 2 h, dose 5 µg/ml
[15] = biological target: T2, Neuronal acetylcholine receptor subunit alpha-7 (Homo sapiens, UniProt P36544); test: as §1, with “alpha7” for “alpha9”, “peak current” for “maximum”, “at 30 uM incubated for” for “(Imax) measured after”, “secs presence of PNU-120596” for “secs”; type: cell-based; conditions: Oocyte, filed as agonist, time 120.0 sec
PBMC [16] = test: Inhibition of ATP-mediated IL-1beta release in LPS primed BzATP induced human PBMC cells at 100 fM primed with LPS for 3 hrs followed by BzATP and compound addition for 30 mins by ELISA; type: functional, cell-based
Oocyte [17] = test: Agonist activity at mouse muscle alpha1beta1epsilondelta nAChR expressed in xenopus laevis oocytes at 30 uM measured after 120 secs by two-electrode voltage-clamp electrophysiology method relative to control; type: cell-based; conditions: time 120.0 sec
THP-1 [18] = test: Cytotoxicity against monocytic human THP-1 cells assessed as effect on lactate dehydrogenase activity in supernatant; type: toxicity, cell-based
[19] = Metabolic stability in pooled BALB/c mouse plasma assessed as compound remaining at 1 uM measured after 0 to 120 mins by UPLC-MS/MS analysis; type: ADME, cell-free; conditions: time 0-120 min
[20] = Toxicity in C57BL/6J mouse assessed as effect on locomotor activity at 20 mg/kg, ip measured after 6 hrs; conditions: in vivo
[21] = biological target: T3, Neuronal acetylcholine receptor; alpha4/beta2 (Homo sapiens) (UniProt P17787+P43681); test: as §2, with “alpha4beta2” for “alpha3beta4”, “30” for “100”; type: cell-based; conditions: Oocyte
[22] = Plasma protein binding in human; type: ADME, cell-free
[23] = biological target: T2, Neuronal acetylcholine receptor subunit alpha-7; test: Partial agonist activity at human alpha7 nAChR expressed as xenopus laevis oocytes assessed as increase in receptor desensitization by measuring fold change in maximum response (Imax) measured after 120 secs by two-electrode voltage-clamp electrophysiology method relative to acetylcholine; type: cell-based; conditions: Oocyte, filed as partial agonist, time 120.0 sec
[24] = biological target: T3, Neuronal acetylcholine receptor; alpha4/beta2 (Homo sapiens); test: Agonist activity at human alpha4beta2 nAChR expressed in xenopus laevis oocytes at 30 uM measured after 120 secs by two-electrode voltage-clamp electrophysiology method relative to control; type: cell-based; conditions: Oocyte, time 120.0 sec
PBMC [25] = test: Inhibition of ATP-mediated IL-1beta release in LPS primed BzATP induced human PBMC cells at 100 uM primed with LPS for 3 hrs followed by BzATP and compound addition for 30 mins by ELISA; type: functional, cell-based
[26] = Metabolic stability in pooled BALB/c mouse plasma at 1 uM measured after 0 to 120 mins by UPLC-MS/MS analysis; type: ADME, cell-free; conditions: time 0-120 min
Mus musculus [27] = test: Antinociceptive activity in sham-treated C57BL/6J mouse model assessed as effect on von Frey response at 20 mg/kg, ip measured after 1 to 72 hrs; type: functional, organism-based; conditions: time 1-72 hrs
Mus musculus [28] = test: Antinociceptive activity in complete freund's adjuvant induced inflammatory pain in C57BL/6J mouse model assessed as increase in mechanical pain threshold at 2 mg/kg, ip pretreated with CFA for 3 days followed by compound treatment and measured after 6 to 24 hrs; type: functional, organism-based; conditions: time 6-24 hrs
Mus musculus [29] = test: Antinociceptive activity in sham-treated C57BL/6J mouse model assessed as effect on von Frey response at 10 mg/kg, ip measured after 5 days; type: functional, organism-based; conditions: time 5.0 day
Mus musculus [30] = test: Antinociceptive activity in complete freund's adjuvant induced inflammatory pain in C57BL/6J mouse model assessed as increase in mechanical pain threshold at 10 mg/kg, ip pretreated with CFA for 3 days followed by compound treatment and measured after 72 hrs; type: functional, organism-based
Mus musculus [31] = test: Antiinflammatory activity in CFA-treated C57BL/6J mouse model assessed as reduction in paw edema at 10 mg/kg, ip measured after 6 hrs
Mus musculus [32] = test: Antinociceptive activity in complete freund's adjuvant induced inflammatory pain in C57BL/6J mouse model assessed as increase in mechanical pain threshold at 10 mg/kg, ip pretreated with CFA for 3 days followed by compound treatment and measured after 5 days; type: functional, organism-based; conditions: time 5.0 day
Mus musculus [33] = test: Antinociceptive activity in complete freund's adjuvant induced inflammatory pain in C57BL/6J mouse model harboring wild type alpha7 nAChR assessed as increase in mechanical pain threshold at 10 mg/kg, ip pretreated with CFA for 3 days followed by compound treatment and measured after 6 hrs; type: functional, organism-based
[34] = biological target: T2, Neuronal acetylcholine receptor subunit alpha-7; test: Agonist activity at human alpha7 nAChR expressed as xenopus laevis oocytes assessed as increase in receptor desensitization by measuring fold change in maximum response (Imax) measured after 120 secs by two-electrode voltage-clamp electrophysiology method relative to acetylcholine; type: cell-based; conditions: Oocyte, filed as agonist, time 120.0 sec
Mus musculus [35] = test: Antinociceptive activity in complete freund's adjuvant induced inflammatory pain in C57BL/6J mouse model assessed as increase in mechanical pain threshold at 10 mg/kg, ip pretreated with CFA for 3 days followed by compound treatment and measured after 1 to 24 hrs; type: functional, organism-based; conditions: time 1-24 hrs
Mus musculus [36] = test: Antinociceptive activity in complete freund's adjuvant induced inflammatory pain in alpha7 nAChR knockout C57BL/6J mouse model assessed as increase in mechanical pain threshold at 10 mg/kg, ip pretreated with CFA for 3 days followed by compound treatment and measured after 6 hrs; type: functional, organism-based
[37] = Toxicity in C57BL/6J mouse assessed as effect on locomotor activity at 10 mg/kg, ip measured after 6 hrs; type: organism-based; conditions: in vivo

T2 sequence (P36544 whole entry): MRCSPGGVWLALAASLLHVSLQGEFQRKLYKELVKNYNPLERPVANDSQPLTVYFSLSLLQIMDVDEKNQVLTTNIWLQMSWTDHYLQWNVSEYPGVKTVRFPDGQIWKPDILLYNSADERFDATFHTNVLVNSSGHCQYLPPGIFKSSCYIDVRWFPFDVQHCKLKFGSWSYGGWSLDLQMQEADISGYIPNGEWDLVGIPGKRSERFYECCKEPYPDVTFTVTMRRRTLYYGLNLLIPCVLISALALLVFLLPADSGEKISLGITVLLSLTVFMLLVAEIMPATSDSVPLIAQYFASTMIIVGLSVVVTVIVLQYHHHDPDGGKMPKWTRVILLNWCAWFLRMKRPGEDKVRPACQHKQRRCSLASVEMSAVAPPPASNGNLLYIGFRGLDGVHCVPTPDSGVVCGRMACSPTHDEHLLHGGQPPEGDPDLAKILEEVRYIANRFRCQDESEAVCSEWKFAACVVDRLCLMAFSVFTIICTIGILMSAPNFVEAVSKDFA
Neuronal acetylcholine receptor subunit alpha-9, sequence (Q9UGM1 whole entry): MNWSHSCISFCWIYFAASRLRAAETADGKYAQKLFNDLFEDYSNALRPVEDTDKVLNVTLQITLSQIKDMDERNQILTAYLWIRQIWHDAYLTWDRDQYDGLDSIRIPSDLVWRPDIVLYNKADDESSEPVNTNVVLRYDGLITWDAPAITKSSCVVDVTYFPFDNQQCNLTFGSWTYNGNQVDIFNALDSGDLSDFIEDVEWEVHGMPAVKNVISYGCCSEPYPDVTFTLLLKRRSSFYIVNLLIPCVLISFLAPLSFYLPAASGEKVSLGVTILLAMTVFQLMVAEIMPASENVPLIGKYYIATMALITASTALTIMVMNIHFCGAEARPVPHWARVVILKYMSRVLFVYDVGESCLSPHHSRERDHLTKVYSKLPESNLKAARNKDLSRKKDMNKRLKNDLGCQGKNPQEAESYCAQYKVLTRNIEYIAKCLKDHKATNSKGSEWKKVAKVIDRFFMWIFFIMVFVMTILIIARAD

Row | Compound | Papp [1] | Activity (THP-1 [2]) | Papp [3] | fold change (FC) [4] | fold change (FC) [5] | Papp [6] | Activity [7] [%] | fold change (FC) [9] | Papp [10] | Papp [12] | fold change (FC) (Oocyte [13]) | Papp [14] | fold change (FC) [15] | Activity (Oocyte [17]) [%] | Activity (THP-1 [18]) | Stability [19] [%] | fold change (FC) [21] | PPB [22] [%] | Activity [24] [%] | Stability [26] | other results
1 | CC[N+]1(C)CCN(c2ccc(C(=O)Nc3cccc(C)n3)cc2)CC1.[I-] | 2.2 10^-6 cm/s | inactive | 2.9 10^-6 cm/s | 1.19 | 0.849 | 1.9 10^-6 cm/s | < 1 | 0.92 | 2.2 10^-6 cm/s | 1.9 10^-6 cm/s | 0.413 | 2.6 10^-6 cm/s | 0.13 | < 1 | Non-Toxic | > 90 | 0.858 | 32 | < 1 | Stable | Activity (Mus musculus [8]): Active; Activity (Mus musculus [11]): Active; inhibition (PBMC [16]): Active; Activity [20]: Non-Toxic; fold change (FC) [23]: 0.4; inhibition (PBMC [25]): inactive; Activity (Mus musculus [27]): inactive
2 | CC[N+]1(C)CCN(c2ccc(NC(=O)c3cccc(C)n3)cc2)CC1.[I-] | 2.8 10^-6 cm/s | inactive | 3.1 10^-6 cm/s | 1.01 | 0.659 | 2.9 10^-6 cm/s | < 1 | 1.04 | 2.4 10^-6 cm/s | 2.5 10^-6 cm/s | 0.558 | 3 10^-6 cm/s | 111 | < 1 | Non-Toxic | > 90 | 1.05 | 54 | < 1 | Stable | Activity (Mus musculus [28]): Active; Activity (Mus musculus [29]): inactive; Activity (Mus musculus [30]): inactive; Activity (Mus musculus [31]): Active; Activity (Mus musculus [32]): Active; Activity (Mus musculus [33]): Active; fold change (FC) [34]: 0.41; Activity (Mus musculus [35]): Active; Activity (Mus musculus [36]): Active; Activity [37]: Non-Toxic
